Assay results published in US20200316050A1, “A TOPICAL COMPOSITION BASED ON NIACINAMIDE DERIVATIVE” (Conopco, Inc., d/b/a UNILEVER, priority 2017, published 2020).

Test system: Human neonatal primary skin keratinocyte (NHEK) cells
Assay: psoriasin (AMP marker) secretion by human keratinocytes, ELISA of culture supernatant
Assay type: cell-based
Conditions: 72 hours incubation, KGM with 2 mM calcium chloride
Description: Step 1: Human neonatal primary skin keratinocyte (NHEK) cells was obtained from Lonza ®. The experiment was done with the above-mentioned cells with passage between 3 and 4. Then, the cells were seeded (35,000 cells/well) in 24 well plate with keratinocyte growth media (KGM) obtained from Invitrogen®. The plate was then incubated at 37±2° C. in a CO2 incubator for 48 hours.
Step 2: After 48 hours of incubation, cell differentiation was induced by replacing media with fresh KGM supplemented with 2 mM calcium chloride solution. This was then followed by incubation at 37±2° C. in a CO2 incubator for 48 hours.
Step 3: After that, the cells were treated with different concentration (as outlined table 1 below) of N-cyclopentyl nicotinamide, with keratinocyte growth media supplemented with 2mM calcium chloride solution:
Step 4: After the above treatment, cells were again incubated at 37±2° C. in a CO2 incubator for 72 hours.
Step 5: After 72 hours of incubation, cell culture supernatant from each well was collected in a sterile tube. The samples were then stored at -80° C. until used for testing psoriasin secretion by standard ELISA technique using psoriasin ELISA kit obtained from Circulx® (No: CY-8073). In the current experiment, psoriasin was used as a marker for AMP.
Step 6: The ELISA method was performed by using 100 μL of cell culture supernatant from each sample.
The data is expressed in terms of fold change over control (no treatment:
Example A). The fold change in psoriasin levels in case of control (example A) is taken to be equal to 1 fold. Any fold change in psoriasin obtained due to treatments outlined in all the other examples was over and above the 1 fold change obtained from the control.

SMILES	Fold Change in psoriasin levels over control (no treatment, Example A = 1) (200 μg/mL)	Fold Change in psoriasin levels over control (no treatment, Example A = 1) (500 μg/mL)	Fold Change in psoriasin levels over control (no treatment, Example A = 1) (400 μg/mL)
NC(=O)c1cccnc1 [B, Niacinamide]	0.9 fold	1.4 fold	
O=C(NC1CCCC1)c1cccnc1 [Example 1, N-cyclopentyl nicotinamide]	2.06 fold		2.84 fold
